One series has as its target T1, hERG (Homo sapiens, UniProt Q12809).
T1 construct: expressed in transfected cells; host or cells: CHO cells, stably transfected
The experiment in a line: hERG ion channel inhibition, automated QPatch on CHO cells expressing hERG. The format is cell-based. Particulars: human, CHO cells stably expressing hERG channels. On the procedure:
(§1) A CHO cell line stably transfected with cDNA and expressing hERG channels of P15 was used for the study.
(§2) Cells were maintained in Petri dishes or flasks at 37° C. in a humidified incubator with 5% CO2 and cultured in a medium containing Ham's F12, 10% (v/v) heat-inactivated FBS, 100 μg/mL hygromycin B and 100 μg/mL geneticin (from Invitrogen). The cells were allowed to grow and reach a confluency of about 80-90% under the above conditions. Before the experiment, the cells were treated with Detachin (from Genlantis) for 3-5 min, at 37° C., then gently mixed well with medium at room temperature, and titrated 15-20 times with a pipette. Then the cells were resuspended in a serum-free medium containing CHO—S-SFM II medium (from Invitrogen) buffered with HEPES (25 mM). The cells used in QPatch study must meet the following criteria: under microscopy examination, the majority of cells in suspension should be single and isolated; their viability should be greater than 95%, with only a small amount of debris and cell clumps (which may clog the holes in QPlate during whole-cell clamp recording); the cell density should be within the range of 3-8×10^6 cells/mL in the final suspension before application to the QPatch stir chamber. Cells under such conditions can be used for recording only within four hours of being harvested.
(§3) Data acquisition was performed using automated QPatch (Sophion Biosciences, Denmark). The cells were voltage-clamped at a holding potential of −80 mV. The hERG current was activated by depolarization at +20 mV for 5 s, after which the current was activated back to −50 mV for 2.5 s to remove the inactivation and observe the outward tail current. The maximum amount of tail current was used to determine hERG current amplitude.
(§4) Six doses (30, 10, 3, 1, 0.3 and 0.1 μM) were selected to obtain a fitted curve and IC^50. The compound was prepared into serial dilutions in 3, 1, 0.3 and 0.1 mM DMSO vehicle to the final M ranges before the QPatch test. 5-10 minutes' ultrasonication and vortexing were generally used for solution to help completely dissolve the compound. The final DMSO concentration was 0.1% or lower, except that for the 30 μM point, the DMSO concentration was about 0.3%.
(§5) After achieving break-in (whole-cell) configuration, the cells were recorded for 120 s to assess current stability. The voltage settings described above were then applied to the cells once every 15 s throughout the whole process. Only stable cells with recording parameters above threshold were allowed to enter the drug assessment procedure. All the experiments were conducted at room temperature (about 25° C.).
(§6) An external solution containing 0.1% DMSO (vehicle) was applied to the cells to establish a baseline. After allowing the current to stabilize for 3 min, the compound was added. The compound solution was added and the cells were kept in the test solution until the effect of the compound reached a steady state or for a maximum of 4 min. For dose response assays, the compound was applied cumulatively to the cells from low to high concentrations. Washing with external solution was performed after compound testing. The positive control cisapride was used in the experiments to test the same batch of cells used for test compounds to ensure the normal response and the good quality of the cells.

A further series concerns the target T2, hERG ion channel (Homo sapiens, UniProt Q12809).
T2 construct: expressed in transfected cells; host or cells: CHO cells, stably transfected
Described as above. To be noted: for Inhibitory activity against hERG (conclusion): 0.1-30 μM; for inhibition at 0.3 µM / inhibition at 1 µM / inhibition at 3 µM: human, CHO cells stably expressing hERG channels. The format is cell-based. As for the experimental part:
as §1, §2, §3, §4, §5, §6

For series [1], the system named is LPS-induced production of TNF-α. The series is described as follows: LPS-induced TNF-α production in mice (plasma ELISA). The class given is in vivo. Particulars: Balb/c mice; GEN1-284s 15 mpk intragastric, LPS 1 mpk i.p. 0.5 h after administration, plasma 2 h after LPS. On the procedure: Materials and method: A total of 18 mice were used in this experiment. The mice were divided into a MOCK group (n=6), a dexamethasone group (n=6), and a GEN1-284s 15 mpk group (n=6). LPS (1 mpk) was intraperitoneally injected 0.5 h after administration. The mice were sacrificed 2 h after the LPS injection, and blood samples were taken. The blood samples were left in EDTA-K2 anticoagulant tubes at room temperature for 20 min and centrifuged at 8000 rpm for 10 min. The plasma was separated and cryopreserved at −80° C. before analysis.
LPS (1 mpk) was intraperitoneally injected 0.5 h after administration. The mice were sacrificed 2 h after the LPS injection, and blood samples were taken. The blood samples were left in EDTA-K2 anticoagulant tubes at room temperature for 20 min and centrifuged at 8000 rpm for 10 min. The plasma was separated and cryopreserved at −80° C. before analysis.
The mice were tested for TNF-α level with ELISA kits, and the inhibitory effect of GEN1-284s on the TNF-α level was evaluated.
According to the instructions for use, a standard curve formula (y=0.0038x+0.1206, R^2=0.9956) was obtained and can be used to calculate detection values.

[2] abbreviates: read-out: % of hERG inhibition, Cell 1.
Where [3] appears, read: read-out: % of hERG inhibition, Cell 2.
Setting [4] is: read-out: Mean % hERG inhibition.

Where two headings read alike, the source gives them in different places.

T2 sequence (Q12809 whole entry): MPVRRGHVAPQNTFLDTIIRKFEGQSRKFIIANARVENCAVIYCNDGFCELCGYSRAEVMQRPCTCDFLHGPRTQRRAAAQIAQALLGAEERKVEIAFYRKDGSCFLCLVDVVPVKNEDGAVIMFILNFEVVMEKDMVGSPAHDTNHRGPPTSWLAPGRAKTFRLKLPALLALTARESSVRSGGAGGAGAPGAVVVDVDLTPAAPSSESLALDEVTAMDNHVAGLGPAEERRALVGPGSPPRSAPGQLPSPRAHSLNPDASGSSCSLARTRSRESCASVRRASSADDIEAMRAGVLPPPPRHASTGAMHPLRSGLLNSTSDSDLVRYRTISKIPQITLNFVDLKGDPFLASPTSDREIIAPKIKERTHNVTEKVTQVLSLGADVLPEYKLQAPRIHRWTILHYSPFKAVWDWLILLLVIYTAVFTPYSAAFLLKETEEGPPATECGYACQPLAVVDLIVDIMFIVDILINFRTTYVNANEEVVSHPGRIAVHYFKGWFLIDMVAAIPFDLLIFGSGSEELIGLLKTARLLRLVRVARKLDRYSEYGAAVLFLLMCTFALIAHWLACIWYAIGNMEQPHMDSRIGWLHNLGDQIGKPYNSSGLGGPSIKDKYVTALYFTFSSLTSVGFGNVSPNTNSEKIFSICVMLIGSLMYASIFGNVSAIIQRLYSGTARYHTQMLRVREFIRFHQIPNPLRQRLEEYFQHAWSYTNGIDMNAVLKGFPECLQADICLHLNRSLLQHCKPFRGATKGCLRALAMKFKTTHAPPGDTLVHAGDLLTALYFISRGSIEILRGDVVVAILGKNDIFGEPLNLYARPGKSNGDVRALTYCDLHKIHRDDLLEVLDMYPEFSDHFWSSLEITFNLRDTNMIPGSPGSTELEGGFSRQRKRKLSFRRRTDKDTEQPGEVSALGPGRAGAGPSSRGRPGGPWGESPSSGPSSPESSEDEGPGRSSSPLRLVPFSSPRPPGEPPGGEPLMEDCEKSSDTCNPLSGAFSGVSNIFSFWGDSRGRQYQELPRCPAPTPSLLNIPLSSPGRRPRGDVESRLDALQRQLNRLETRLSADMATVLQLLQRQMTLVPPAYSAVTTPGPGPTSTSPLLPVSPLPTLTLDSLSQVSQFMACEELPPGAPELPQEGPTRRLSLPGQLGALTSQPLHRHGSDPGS
T1 sequence (Q12809 whole entry): as above

Regarding `O=C(Cc1ccc2ncccc2c1)N1CCC(n2c(=O)[nH]c3cccc(C(F)(F)F)c32)CC1` [GEN1-117, 1-(1-(2-(Quinolin-6-yl)acetyl)piperidin-4-yl)-7-(trifluoromethyl)-1H-benzo[d]imidazol-2(3H)-one], on hERG (setting [2]), the inhibition at 0.1 µM is 3.84%, the inhibition at 0.3 µM came to 3.95%, the inhibition at 10 µM is 12.8% and the inhibition at 30 µM was 12.8%. For the same compound, on hERG (setting [3]), the inhibition at 0.1 µM is -0.21%, the inhibition at 10 µM was 19.3% and the inhibition at 30 µM was found to be 19.3%. At hERG (setting [4]), the inhibition at 0.1 µM was 1.81%, the inhibition at 10 µM came to 16% and the inhibition at 30 µM came out at 16%. In addition, the “Inhibitory activity against hERG (conclusion)” value at hERG ion channel is listed as “no significant inhibitory activity against hERG”. Besides, on hERG ion channel (setting [3]), the inhibition at 0.3 µM turned out to be 4.17%, the inhibition at 1 µM came out at 13.4% and the inhibition at 3 µM worked out at 13.3%. In addition, at hERG ion channel (setting [4]), the inhibition at 0.3 µM worked out at 4.06%, the inhibition at 1 µM worked out at 10.7% and the inhibition at 3 µM came to 12.2%. In addition, at hERG ion channel (setting [2]), the inhibition at 1 µM amounted to 7.99% and the inhibition at 3 µM turned out to be 11%.
Consider `O=C(Cc1ccc2ncccc2c1)N1CCC(n2c(=O)n(COP(=O)([O-])[O-])c3cccc(C(F)(F)F)c32)CC1.[Na+].[Na+]` [GEN1-284 salt, (2-Oxo-3-(1-(2-(quinolin-6-yl)acetyl)piperidin-4-yl)-4-(trifluoromethyl)-2,3-dihydro-1H-benzo[d]imidazol-1-yl)methyl disodium phosphate], for which, on hERG (setting [2]), the inhibition at 0.1 µM came to 2.22%, the inhibition at 0.3 µM amounted to 10.2%, the inhibition at 10 µM was found to be 9.28% and the inhibition at 30 µM is 19.1%. In addition, at hERG (setting [3]), the inhibition at 0.1 µM was 8.28%, the inhibition at 10 µM was 3.41% and the inhibition at 30 µM stood at 8.86%. Also, at hERG (setting [4]), the inhibition at 0.1 µM was determined as 5.25%, the inhibition at 10 µM amounted to 6.34% and the inhibition at 30 µM stood at 13.9%. In addition, on hERG ion channel, the “Inhibitory activity against hERG (conclusion)” value is “no significant inhibitory activity against hERG”. On hERG ion channel (setting [3]), the inhibition at 0.3 µM is 2.25%, the inhibition at 1 µM was determined as 0% and the inhibition at 3 µM was found to be 2.66%. Moreover, at hERG ion channel (setting [4]), the inhibition at 0.3 µM was 6.24%, the inhibition at 1 µM is 1.44% and the inhibition at 3 µM was determined as 1.33%. In addition, on hERG ion channel (setting [2]), the inhibition at 1 µM came to 2.88% and the inhibition at 3 µM was 0%. Also, in series [1], the “Inhibition rate against LPS-induced TNF-α” value stood at 36%.

Source of the values: US20240391940A1, “FUSED RING-CONTAINING COMPOUND, APPLICATION THEREOF, AND COMPOSITION CONTAINING SAME” (GenEros Biopharma Ltd., priority 2020, published 2024).
